Series [1] relates to Aspergillus fumigatus IAM 2046. Nature of the series: Effects of inducers on the production of diglycosidase. In kind it is cell-based. Conditions: for activity at 0.1 %: Aspergillus fumigatus, IAM2046, 144 h, read-out: Inducing ability (%). The method, then: Measurement of the activity was carried out using an automatic chemical analyzer (TBA-30R, manufactured by TOSHIBA CORP.). A 30 μl portion of each enzyme sample was mixed with 200 μl of acetate buffer solution (pH 5.5) containing 2 mM of p-nitrophenyl (pNP) primeveroside as the disaccharide glycoside substrate to carry out the reaction at 40° C. and at a cycle time of 22.5 seconds, for 9.75 minutes, and then the reaction solution was mixed with 250 μl of sodium carbonate to measure absorbance at 412 nm. Measurement of the sample blank was carried out in the same manner using 20 mM acetate buffer (pH 5.5) instead of the substrate solution.
Using Aspergillus fumigatus IAM 2046, effects of inducers on the production of diglycosidase were examined. Aspergillus fumigatus IAM 2046 was cultured for 6 days in a culture medium (2% soybean flour, 0.3% sodium chloride, 0.1% KH2PO4, 0.05% MgSO4.7H2O, 3% soluble starch) supplemented with 0.1% of each of various saccharides, and the diglycosidase activity was measured.

A short description of series [2]: Optimum pH of diglycosidase. It counts as biochemical. The method, then:
Its optimum pH was measured in the following manner. A 400 μl portion of 2 mM pNP-primeveroside solution which had been adjusted to a respective pH value of from pH 2 to 5 with 20 mM secondary citric acid-HCl buffer was incubated at 37° C. for 5 minutes. Next, this was mixed with 90 μl of the enzyme solution to carry out the reaction at 37° C. for 20 minutes. The reaction was stopped by adding 500 μl of 0.5 M sodium carbonate solution, and the activity measurement was carried out by measuring the absorbance at 420 nm.

Series [3] can be described thus: Release of primeverose from pNP-primeveroside by TLC. It counts as biochemical. Conditions: 0.3 AU purified enzyme, 37° C., 24 hours. The method, then: Each of the crude enzyme solutions obtained in Examples 1 and 2 was concentrated using an ultrafiltration membrane having a molecular weight cutoff of 6,000. Next, 1 ml of the concentrated solution was mixed with 1 ml of a 5 mg/ml pNP-primeveroside solution which had been prepared using 20 mM phosphate buffer (pH 6.0), and the mixture was incubated at 37° C. Samples were collected 1, 2, 4, 24 and 48 hours thereafter to confirm release of primeverose by a thin layer chromatography (TLC).
A 0.3 AU portion of the purified enzyme solution obtained in Example 6 and the aforementioned pNP-primeveroside were incubated at 37° C. for 24 hours to examine release of disaccharide by TLC. […] Such a spot was not found by the heat-treated purified enzyme solution used as a control.

The nature of series [4]: Release of disaccharide from pigment glycoside by TLC. In kind it is biochemical. Conditions: 5 mg/ml ruberythric acid, 37° C., 24 hours. How it is done:
Release of disaccharide was examined using a disaccharide glycoside, ruberythric acid, as the substrate. Ruberythric acid was prepared by adsorbing a water extract of Rubia tinctorum L. root powder for staining use (available from Tanaka Senshoku Ten) to HP-20 column, washing the column with 50% methanol, and then eluting the compound with 100% methanol and evaporating the eluate to dryness using an evaporator. A substrate prepared by dissolving the thus recovered ruberythric acid in a phosphate buffer to a concentration of 5 mg/ml was mixed with the crude enzyme solution (0.3 AU) shown in Example 4 or the purified enzyme solution shown in Example 6 and incubated at 37° C. for 24 hours, and then the reaction solution was analyzed by TLC.

Series [5] can be described thus: Thermal stability of diglycosidase (residual activity). It counts as physicochemical. Conditions: pH 8, 1 hour, 30 to 55° C. The method, then: Thermal stability of the purified preparation was examined by diluting it 100 times with 20 mM glycine NaCl—NaOH buffer (pH 8), treating the dilution at each temperature of from 30 to 55° C. for 1 hour and then measuring the residual activity. As a result, the activity was stable at a temperature of 50° C. or below.

A short description of series [6]: Optimum temperature of diglycosidase. Conditions: pH 2.5, 20 minutes. It counts as biochemical. The method, then:
Its optimum temperature was measured in the following manner. A 400 μl portion of 2 mM pNP-primeveroside solution prepared using 20 mM disodium citric acid-HCl buffer (pH 2.5) was mixed with 90 μl of the enzyme solution to carry out the reaction at 30 to 65° C. for 20 minutes. The reaction was stopped by adding 500 μl of 0.5 M sodium carbonate solution, and the activity was determined by measuring the absorbance at 420 nm.

The nature of series [7]: Release of disaccharide and formation of aroma from eugenyl primeveroside. It counts as biochemical. Conditions: 0.3 AU purified enzyme, 37° C., 24 hours. The method, then:
eugenyl primeveroside solution adjusted to 5 mg/ml with 20 mM phosphate buffer (pH 6.0), the mixture was incubated at 37° C. for 24 hours and then the formation of aroma was examined by a sensory test (10 panel). […]
[…] […] These were not found in heat-inactivated enzyme solution.

The nature of series [8]: Sugar transfer in disaccharide unit by diglycosidase. It counts as biochemical. Conditions: 55° C., 6 hours. The method, then:
The purified enzyme of Example 6 was diluted with deionized water to adjust the activity to E1.0 AU/ml, and acetonitrile ([…]) containing 2.5% phenethyl alcohol, 20 mM acetate buffer (250 μl) containing 10% primeverose and the enzyme solution (50 μl) were mixed to carry out the reaction at 55° C. The reaction was completed after 6 hours and the reaction solution was mixed with 500 μl of diethyl ether, stirred and then centrifuged to remove free aglycon which was transferred into the ether layer. By applying the water layer to a Diaion HP-20 column and passing purified water through the column, free primeverose was removed. The disaccharide glycoside adsorbed to the resin was eluted with methanol and concentrated to dryness. This was dissolved in 100 μl of deionized water, and a 20 μl portion thereof was spotted on a TLC plate to detect the reaction product (the developing solvent was ethyl acetate:acetic acid:deionized water=3:1:1, acetic acid:methanol=1:4 solution was sprayed thereto after the development and allowed to stand at 105° C. for 10 minutes).

[9] abbreviates: medium supplemented with 0.1% of saccharide, cultured 6 days, diglycosidase activity, not added = 100.

Counter-ions that a name gives are not always drawn. Like-named read-outs stand apart in the source and are kept apart here.

As for Maltotriose, the “Inducing ability (%)” value in series [1] (setting [9]) turned out to be 171%.
Take `C[C@H](O)[C@H](O)[C@@H](O)[C@@H](O)C=O` [Rhamnose]: the activity at 0.1 % in series [1] (setting [9]) amounted to 129%.
Consider `OC[C@H]1O[C@H](OC[C@H]2OC(O)[C@H](O)[C@@H](O)[C@@H]2O)[C@H](O)[C@@H](O)[C@@H]1O` (some centres unmarked) [Isomaltose], for which the “Inducing ability (%)” value in series [1] (setting [9]) stood at 145%.
In the case of `O=C[C@H](O)[C@@H](O)[C@@H](O)[C@H](O)CO` [Galactose], the activity at 0.1 % in series [1] (setting [9]) stood at 125%.
In the case of `O=C(CO)[C@@H](O)[C@H](O)[C@H](O)CO` [Fructose], the activity at 0.1 % in series [1] stood at 143%.
`OC[C@@H](O)[C@@H](O[C@H]1O[C@H](CO)[C@@H](O)[C@H](O)[C@H]1O)[C@H](O)[C@@H](O)CO` [Maltitol]: the “Inducing ability (%)” value in series [1] (setting [9]) came out at 142%.
Consider Gentiobiose, for which the “inducing ability / producing ability of diglycosidase (in words)” value in series [1] (0.1% saccharide, 6 days) is recorded as “markedly high inducing ability”. The “Inducing ability (%)” value in series [1] (setting [9]) was 211%.
Consider `OC[C@H]1O[C@H](O[C@H]2O[C@H](CO)[C@@H](O)[C@H](O)[C@H]2O)[C@H](O)[C@@H](O)[C@@H]1O` [Trehalose], for which, in series [1] (setting [9]), the activity at 0.1 % worked out at 113%.
Consider `OC[C@H]1O[C@H](O[C@H]2[C@H](O)[C@@H](O)C(O)O[C@@H]2CO)[C@H](O)[C@@H](O)[C@@H]1O` (mixture of isomers) [Maltose], for which, in series [1] (setting [9]), the activity at 0.1 % is 136%.
Still for that read-out and setting: the result for `OC[C@H]1O[C@@](CO)(O[C@H]2O[C@H](CO)[C@@H](O)[C@H](O)[C@H]2O)[C@@H](O)[C@@H]1O` [Sucrose] reads 116%; that for `N[C@H]1C(O)O[C@H](CO)[C@@H](O)[C@@H]1O` (some centres unmarked) [Glucosamine hydrochloride], 157%.
With `OC[C@@H](O)C(O)[C@H](O)CO` [Arabitol], in series [1] (setting [9]), the “Inducing ability (%)” value is given as 112%.
`OC[C@@H](O)[C@H](O)[C@H](O)[C@@H](O)CO` [Galactitol]: the activity at 0.1 % in series [1] (setting [9]) amounted to 142%.

B1: diglycosidase derived from Aspergillus fumigatus: purified enzyme preparation of diglycosidase from Aspergillus fumigatus IAM 2046, single band of 47 kDa, SEQ ID NO: 8 (protein, listed as Aspergillus fumigatus)
chain: AASASAYCSNSAGNYKLSSIAAPVQGAGNPGSESTWQLTVDDTSSGHKQTIVGFGAAVTDATVTSFNTLSASVLQDLLNKLMTPAGANFALMRHTIGASDLSGDPAYTYDDNGGKADPSLSGFNLGDRGTAMAKMLATMKSLQPNLKILGSPWSAPGWMKLNGVLDGNTNNNNLNDGYLTSGGTGSTGYASQFAQYFVKYIQAYKNLGAHVDAITIQNEPLFSSAGYPTMYVYDYESAQLIQNYIGPALASAGLDTEIWAYDHNTDVPSYPQTVLNQAGQYVKSVAWHCYAPNVDWTVLSQFHNTNPGVKQYMTECWTPASGAWHQAADFTMGPLQNWASGVAAWTLGTNAQDGPHLSTGGCATCQGLVTINNGGYTLNTAYYMMAQFSKFMPPGAIVLNGSGSYTYSGGGGIQSVASLNPDGTRTVVIENTFGNDVYVTVTMKSGQKWSGNAPSQSVTTWVLPSA
As to B1, in series [2], the “activity at pH 3 (in words)” value is “sufficient activity”. For the same molecule, the “release of disaccharide (TLC)” value in series [3] is on record as “release of a disaccharide was confirmed”. Further, the “release of primeverose and alizarin (TLC)” value in series [4] was “release of the disaccharide primeverose and the aglycon alizarin was observed”. The “temperature at which activity is stable” value in series [5] was ≤ 50 °C. In addition, the “activity at 60° C.” value in series [6] is given as 80%. In series [7], the “release of disaccharide (TLC)” value is “release of a disaccharide was confirmed”, the “release of eugenol (gas chromatography)” value is recorded as “confirmed” and the “release of eugenol (sensory test)” value is “release of eugenol was also confirmed”. In series [8], the “transfer of disaccharide to phenethyl alcohol (TLC)” value was “transfers the diglycoside to phenethyl alcohol and thereby forms a disaccharide glycoside”.
